Values of other authors as cited in Sander's compilation of Henry's law constants (doi:10.1007/978-94-007-2275-0).

Assay: Henry solubility constant Hcp at 298.15 K (mol/(m3 Pa))
Details: reference: Warneck and Williams (2012); cited value

| SMILES | Henry solubility constant Hcp |
| --- | --- |
| [Ar] [argon] | 1.4e-05 |
| S=C=S [carbon disulfide] | 0.00061 |
| [C-]#[O+] [carbon monoxide] | 9.7e-06 |
| O=C=S [carbon oxide sulfide] | 0.00021 |
| FC(F)(Cl)Cl [dichlorodifluoromethane] | 3e-05 |
| CSC [dimethyl sulfide] | 0.0056 |
| OO [hydrogen peroxide] | 910 |
| COO [methyl hydroperoxide] | 2.9 |
| CC(=O)OO[N+](=O)[O-] [peroxyacetyl nitrate] | 0.029 |
| FC(F)(F)F [tetrafluoromethane] | 2.1e-06 |

Now from value to molecule:

| Henry solubility constant Hcp | SMILES |
| --- | --- |
| 0.00024 | [N-]=[N+]=O [dinitrogen monoxide] |
| 9.9e-05 | [O]N=O [nitrogen dioxide] |
| 1.9e-05 | [N]=O [nitrogen monoxide] |
| 1.2e-05 | O=O [oxygen] |
| 2.4e-06 | FS(F)(F)(F)(F)F [sulfur hexafluoride] |
